Measurements taken from patent US20050170397A1, “Novel receptors” (Tularik Inc., priority 2000, published 2005).
“Also recorded” adds a separate entry of the source. Where no end group is shown, it is not given here.

Legend:
TGR342 [1] = target: T1, TGR342 (Homo sapiens, UniProt Q969V1); assay: aequorin luminescence assay of intracellular calcium mobilization, TGR342-transfected cells; format: cell-based; settings: for TGR342 agonist activity of MCH-related peptides / TGR342 agonist activity at 1 μM: FIG. 5; for TGR342 agonist activity of MCH-related peptides: concentration not given; for effect on intracellular calcium levels (peptide library screen): peptides at 1 μM, HEK293 or CHO cells co-transfected with pEF6-V5/TGR342 and pcDNA3/AEQ
T1 construct: The full-length TGR342 cDNA was cloned by; V5 (known only from the vector name pEF6-V5); expressed in transfected cells; host or cells: HEK293 and CHO cells, transient
Experimental: HEK293 and CHO cells were transiently co-transfected with pEF6-V5/TGR342 and pcDNA3/AEQ (expressing aequorin). After 24 hours of incubation, the transfected cells were treated for one hour with serum free medium containing 2 μM coelenterazine f (Molecular Probes). The cells were then collected in the assay buffer HBSS (Hanks' Balanced Saline Solution containing 10 mM hepes and 0.1% BSA). Thereafter, the transfected cells were stimulated with the peptides at a concentration of 1 μM and the kinetics of […] from the cells was recorded with a microplate luminometer (EG & G BERTHOLT).

endogenous Gq receptors = assay: Ca^2+ response through endogenous Gq receptors with or without PTX (control); format: cell-based; settings: HEK293 cells; 100 ng/ml PTX for 16 hr; FIG. 7
Experimental: (§1) The Ca^2+ responses were determined with the aequorin assay. Relative luminescence is expressed as the fold-luminescence of that from the cells treated with the highest cocnetration of the ligand without PTX treatment.
(§2) LPA and ADP, which stimulate Ca^2+ increase through endogenous Gi and Gq receptors, respectively (see, e.g., Moolenaar, Ann. N. Y Acad. Sci. 905:1-10, 2000; Fields et al., Biochem. J. 321:561-571, 1997), were tested as controls. As expected, LPA-induced Ca^2+ response was PTX sensitive while the ADP-induced response was resistant (FIG. 7).

TGR342 [2] = target: T1, TGR342; assay: [^125I]-MCH binding to membranes of TGR342-transfected HEK293 cells; settings: inhibited by excess unlabeled MCH (data not shown)
TGR342 [3] = target: T1, TGR342; assay: Ca^2+ response (aequorin assay) with or without pertussis toxin, TGR342-transfected cells; format: cell-based
Experimental: as §1, §2

MCHR1 [4] = target: T2, MCHR1 (Homo sapiens, UniProt Q99705); assay: Ca^2+ response (aequorin assay) with or without pertussis toxin, MCHR1-transfected cells; format: cell-based; settings: MCH stimulation; 100 ng/ml PTX pretreatment for 16 hr
Experimental: as §1, §2

TGR342 [5] = target: T1, TGR342; assay: inositol phosphate production in TGR342-transfected cells with or without PTX; format: cell-based
MCHR1 [6] = target: T2, MCHR1; settings: stated as known; cited from earlier work
[7] = 100 ng/ml PTX pretreatment for 16 hr
[8] = HEK293 (or CHO) cells transfected with pEF6/V5-TGR342

T1 sequence (Q969V1 whole entry): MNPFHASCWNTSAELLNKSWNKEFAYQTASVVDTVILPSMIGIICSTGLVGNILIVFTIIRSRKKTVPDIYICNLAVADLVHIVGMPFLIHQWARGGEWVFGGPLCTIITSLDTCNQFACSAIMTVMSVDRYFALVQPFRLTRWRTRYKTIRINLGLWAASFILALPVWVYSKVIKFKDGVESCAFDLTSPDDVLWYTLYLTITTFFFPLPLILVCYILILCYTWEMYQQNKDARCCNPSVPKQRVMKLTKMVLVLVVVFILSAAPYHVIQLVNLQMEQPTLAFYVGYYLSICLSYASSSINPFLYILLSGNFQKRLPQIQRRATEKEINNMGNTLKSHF
T2 sequence (Q99705 whole entry): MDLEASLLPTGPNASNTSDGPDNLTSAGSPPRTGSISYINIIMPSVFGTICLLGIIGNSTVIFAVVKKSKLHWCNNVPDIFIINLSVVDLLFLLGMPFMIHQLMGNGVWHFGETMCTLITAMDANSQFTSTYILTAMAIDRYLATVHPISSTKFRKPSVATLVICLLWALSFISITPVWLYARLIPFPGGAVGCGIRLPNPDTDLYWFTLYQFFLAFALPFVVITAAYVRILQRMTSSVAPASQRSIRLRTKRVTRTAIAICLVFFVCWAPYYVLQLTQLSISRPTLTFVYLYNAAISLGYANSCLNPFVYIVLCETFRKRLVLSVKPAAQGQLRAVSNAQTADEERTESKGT

## neuropeptide-EI: peptide from the same MCH precursor (EIGDEENSAKFPI; ends and bridges not checked; UniProt P20382 131-143, looked up)
TGR342 [1]
  TGR342 agonist activity of MCH-related peptides: inactive

## somatostatin-28
TGR342 [1]
  TGR342 agonist activity at 1 μM: None of these peptides exhibited activity

## somatostatin-14
TGR342 [1]
  TGR342 agonist activity at 1 μM: None of these peptides exhibited activity

## cortistatin-17
TGR342 [1]
  TGR342 agonist activity at 1 μM: None of these peptides exhibited activity

## Nc1ncnc2c1ncn2[C@@H]1O[C@H](COP(=O)(O)OP(=O)(O)O)[C@@H](O)[C@H]1O [ADP]
Endogenous Gq receptors
  PTX sensitivity of the Ca^2+ response through endogenous Gq receptors: resistant

## neuropeptide GE: peptide from the same MCH precursor (GSVAFPAENGVQNTESTQE; Neuropeptide-glycine-glutamic acid; UniProt P20382 110-128, looked up)
TGR342 [1]
  TGR342 agonist activity of MCH-related peptides: inactive

## cortistatin-14 (PCKNFFWKTFSSCK; ends and bridges not checked; cysteine pairing not given here; UniProt Q62949 99-112, looked up) [peptide structurally very similar to somatostatin]
TGR342 [1]
  TGR342 agonist activity at 1 μM: None of these peptides exhibited activity

## α-MSH: the functional MCH antagonist
TGR342 [1]
  TGR342 agonist activity at 1 μM: inactive as an agonist
  effect on intracellular calcium levels (peptide library screen): Neither somatostatin nor α-MSH showed any detectable effect

## CSCC[C@@H]1NC(=O)[C@@H](NC(=O)[C@H](CCCNC(=N)N)NC(=O)[C@H](CC(C)C)NC(=O)[C@H](CCSC)NC(=O)[C@H](CC(=O)O)NC(=O)[C@H](Cc2ccccc2)NC(=O)[C@@H](N)CC(=O)O)CSSC[C@@H](C(=O)N[C@@H](Cc2c[nH]c3ccccc23)C(=O)N[C@@H](CCC(N)=O)C(=O)N[C@H](C(=O)O)C(C)C)NC(=O)[C@@H]2CCCN2C(=O)[C@H](CCCNC(=N)N)NC(=O)[C@H](Cc2ccc(O)cc2)NC(=O)[C@H](C(C)C)NC(=O)[C@H](CCCNC(=N)N)NC(=O)CNC(=O)[C@H](CC(C)C)NC1=O [MCH, melanin-concentrating hormone]
TGR342 [2]
  specificity of binding to TGR342: specific
TGR342 [1]
  effect on intracellular calcium levels (peptide library screen): increased intracellular calcium levels
TGR342 [3]; [7]
  PTX sensitivity of the Ca^2+ response, TGR342: insensitive to PTX treatment
TGR342 [3]; [8]
  Ca^2+ levels in TGR342-transfected cells: increased levels
MCHR1 [4]
  PTX sensitivity of the Ca^2+ response, MCHR1: mostly inhibited
TGR342 [5]; [7]
  PTX sensitivity of the inositol phosphate response, TGR342: insensitive to PTX treatment
TGR342 [5]; [8]
  inositol phosphate levels in TGR342-transfected cells: increased levels; also recorded: increased the production of inositol phosphate

## [Phe^13, Tyr^19]-MCH
TGR342 [1]
  TGR342 agonist activity of MCH-related peptides: activates
MCHR1 [6]
  activation of MCHR1 (known): bind and activate
